Laboratory results from PubChem BioAssay (NCI).
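Compound exposure: 48 hours, 5 concentrations, 96-well plates. TGI denotes the concentration required for complete inhibition of growth.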

Key:
Assay in all cases: inhibition of tumour cell growth, NCI panel, 48 h
SF-268 CNS = tested on: SF-268 CNS
K-562 leukemia = tested on: K-562 leukemia
NCI-H460 lung = tested on: NCI-H460 lung
OVCAR-8 ovarian = tested on: OVCAR-8 ovarian
UACC-62 melanoma = tested on: UACC-62 melanoma
MDA-MB-231 breast = tested on: MDA-MB-231 breast
NCI-H522 lung = tested on: NCI-H522 lung
MALME-3M melanoma = tested on: MALME-3M melanoma

SMILES | TGI (SF-268 CNS) [µM] | TGI (K-562 leukemia) [µM] | TGI (NCI-H460 lung) [µM] | TGI (OVCAR-8 ovarian) [µM] | TGI (UACC-62 melanoma) [µM] | TGI (MDA-MB-231 breast) [µM] | TGI (NCI-H522 lung) [µM] | TGI (MALME-3M melanoma) [µM]
COc1ccc2c(c1)C/C(=C\c1cccc3ccccc13)C2=O | > 100 | > 100 | > 100 | > 100 | > 100 |  |  | 
COC(OC)C1OCC(n2cc(F)c(=O)[nH]c2=O)C1O (configuration not stated) | > 100 | > 100 | > 100 | > 100 | > 100 | > 100 | > 100 | > 100
C(=Nc1ccc(-c2nc3ccccc3[nH]2)cc1)c1ccc[nH]1 | > 100 | > 100 |  | > 100 | > 100 |  | > 100 | > 100
O=C(CCCCCC(=O)N1CC(CCl)c2ccc([N+](=O)[O-])cc21)N1CC(CCl)c2ccc([N+](=O)[O-])cc21 (configuration not stated) | > 100 | > 100 | > 100 | > 100 | > 100 | > 100 | > 100 | 
O=c1[nH]c(=O)n(C2CC(O)C(CO)O2)cc1NN=NCCCc1ccccc1 (configuration not stated) | > 100 |  | > 100 | > 100 | > 100 | > 100 |  | > 100
C[n+]1c(-c2ccc(/C=N/Nc3ccnc(N/N=C/c4ccc(-c5cn6ccsc6[n+]5C)cc4)n3)cc2)cn2ccsc21 |  | 39.7 | 91.3 | > 100 | > 100 | > 100 | > 100 | > 100
CN(CCO)CCCC1COc2ccccc2O1 (configuration not stated) | 45.4 | > 100 | > 100 | > 100 | > 100 |  | > 100 | > 100
CCCCCCCC(CC(=O)NC(CO)C(=O)NC(CO)CC(C)C)OC(=O)CC(CCCCCCC)OC(=O)CC(CCCCCCC)OC1OC(C)C(O)C(OC2OC(C)C(O)C(O)C2OC(C)=O)C1O (configuration not stated) | 21.2 | 16.8 | 15.4 | 22.4 | 18.6 | 21.5 | 26.8 | 23.2
O=c1sc2c(s1)-c1sc(=O)sc1SS2 | > 100 | > 100 | > 100 | 48.9 | > 100 | > 100 | > 100 | > 100
C=CCN1C(=O)/C(=C/c2ccco2)N=C1SC1OC(COC(C)=O)C(OC(C)=O)C(OC(C)=O)C1OC(C)=O (configuration not stated) |  | > 100 | > 100 | > 100 | > 100 | > 100 | 51.7 | > 100
COc1ccc(/C=C2\CCS(=O)(=O)c3ccccc3C2=O)cc1OC | > 100 | > 100 | 47 | 43.5 | 76.6 | > 100 |  | 
O=C(CCCCCCCCC(=O)N1C(=O)CC(=O)N(c2ccccc2)C1=S)N1C(=O)CC(=O)N(c2ccccc2)C1=S | > 100 |  | > 100 | > 100 | > 100 | > 100 | > 100 | > 100
COc1cc2oc(=O)cc(C)c2cc1O | > 100 | > 100 | > 100 | > 100 |  | > 100 | > 100 | > 100
O=C1c2ccccc2C(=O)c2sc(Nc3ccccc3C(F)(F)F)nc21 | 30.1 | 14.8 | 58.1 |  | 29.7 | 16.1 | > 100 | 29.9
CC(C)CCCC(C)[C@H]1CC[C@H]2[C@@H]3CC[C@H]4C[C@@H](CCC=C(c5cc(Cl)c(O)c(C(=O)OC(C)C)c5)c5cc(Cl)c(O)c(C(=O)OC(C)C)c5)CC[C@]4(C)[C@H]3CC[C@]12C (some centres not stated) | > 50 | > 50 |  | > 50 | > 50 | > 50 |  | 
CC1(C)C(CCO)CC1n1cc(I)c(=O)[nH]c1=O (configuration not stated) | > 100 | > 100 |  |  | > 100 | > 100 |  | 
COC1CC(OC2C(C)OC(OC3C(C)OC(OC4C(O)CC(O[C@H]5CC[C@@]6(C)C(=CC[C@]7(O)[C@@H]6C[C@@H](OC(C)=O)[C@@]6(C)[C@]7(O)CC[C@@]6(O)C(C)=O)C5)OC4C)CC3OC)CC2OC)OC(C)C1O (some centres not stated) | > 12.5 | > 12.5 |  | > 12.5 | > 12.5 | > 12.5 | > 12.5 | > 12.5
O=C(CCC(=O)CC(O)(C(F)(F)F)C(F)(F)F)CC(O)(C(F)(F)F)C(F)(F)F | > 100 | > 100 |  | > 100 | > 100 | > 100 |  | > 100
COc1cc(C2c3cc4c(cc3OC(Nc3ccccc3)C2C)OCO4)cc(OC)c1O (configuration not stated) | 39.4 | 7.49 |  | 23.8 | 23 | 19.3 | 9.16 | 21.6
CCCCCCCCCCCCc1ccc(S(=O)(=O)O)cc1.[Zn+2] | > 100 | > 100 | > 100 | > 100 | > 100 | > 100 |  | > 100
O=C(c1ccccc1)n1cc(-c2ccccc2)c2c(=O)[nH]cnc21 | > 100 |  |  | > 100 | > 100 | > 100 | > 100 | > 100
CSC1C(=O)Nc2ccc3ccccc3c21 (configuration not stated) | 38 |  | > 100 | 34.9 | 35.9 | 56.5 | 7.29 | > 100
COc1cc([C@@H]2c3cc4c(cc3[C@@H](Nc3ccccc3C(=O)c3ccccc3)[C@H]3COC(=O)[C@H]23)OCO4)cc(OC)c1OC | > 100 | > 100 |  | > 38.3 |  | > 66.1 | 2.07 | > 100
COc1ccc(NC(=O)CC(=O)n2nc(C)c(N=Nc3cccc(C)c3)c2C)cc1 | > 100 |  | > 100 | > 100 | > 100 | > 100 | > 100 | > 100
CCOC(=O)C(CC(C)C)NC(=O)CSc1nnc(COc2ccc(Cl)cc2)n1-c1ccccc1 (configuration not stated) | 35.6 | > 100 | 29.3 |  | 30.7 | 30.6 |  | 37.8
NNc1nncc2[nH]cnc12 | > 100 | > 100 | > 100 | > 100 | > 100 | > 100 |  | 
COc1cc(C2=NNC(=O)c3ccccc3N2c2nc(-c3cccs3)nc3ccc(Br)cc23)cc(OC)c1OC | 58.4 |  | 14.2 | > 100 | > 100 | > 100 | > 100 | 59.1
